Laboratory results published in patent US4086139A, “Differential inactivation of amylase in amylase-protease mixtures” (GB Fermentation Industries Inc., priority 1976, dated 1978).
“And” between values parts separate entries of the source, which are not always exact repeats. Identical values can stand only once. Like-named read-outs stand apart in the source and are kept apart here.

How the values were obtained:
Type in all cases: biochemical
[1] = tested on: amylase; assay: Amylase activity of B. subtilis Alkaline Protease composition after oxidizing agent treatment (Food Chemicals Codex method); conditions: for Amylase % loss: 75 min
[2] = target: protease (Bacillus subtilis, UniProt P04189); assay: Protease activity of B. subtilis Alkaline Protease composition after oxidizing agent treatment (Food Chemicals Codex method)
[3] = target: T1, amylase (Sus scrofa, UniProt P00690); assay: Amylase activity of pancreatin after hypochlorite treatment
T1 construct: purchased Cudahy Co; host or cells: pancreas (pancreatin)
T1 sequence (P00690 16-511): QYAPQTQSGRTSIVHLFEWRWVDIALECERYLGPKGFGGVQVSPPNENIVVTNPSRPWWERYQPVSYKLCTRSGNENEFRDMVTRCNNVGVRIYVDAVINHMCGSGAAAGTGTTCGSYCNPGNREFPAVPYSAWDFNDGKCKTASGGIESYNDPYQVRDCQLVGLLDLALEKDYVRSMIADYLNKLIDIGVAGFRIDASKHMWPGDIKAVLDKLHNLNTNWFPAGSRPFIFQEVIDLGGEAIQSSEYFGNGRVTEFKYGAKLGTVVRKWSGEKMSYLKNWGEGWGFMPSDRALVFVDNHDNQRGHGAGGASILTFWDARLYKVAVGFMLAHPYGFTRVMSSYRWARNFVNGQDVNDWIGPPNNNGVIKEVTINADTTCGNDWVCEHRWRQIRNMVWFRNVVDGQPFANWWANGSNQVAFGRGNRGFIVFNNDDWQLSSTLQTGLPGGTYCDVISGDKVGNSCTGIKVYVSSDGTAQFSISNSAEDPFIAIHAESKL
Method: (§1) Pancreatin obtained from the Cudahy Co. was dissolved in isotonic salt solution (0.9% NaCl) to a concentration of 3.13 g. in 25 g. of solution. The solution pH was 6.5. Sodium hypochlorite solution (Clorox®) was added and the increments equalized by the addition of isotonic salt solution. The isotonic salt solution is used to avoid potency degradation of the solution upon standing. A similar lack of effect was noted when using an enzyme solution having a pH of 5.8 rather than 6.5. The enzyme mixture was treated for 11/4 hr. at room temperature and then assayed for protease and amylase activity. As in the prior Examples, the percent sodium hypochlorite is based on the solids content of the enzyme solution.
(§2) ^1, ^2 Amylase and protease activity were assayed by the same

[4] = tested on: protease; assay: Protease activity of pancreatin after hypochlorite treatment; parameters: Protease Activity: unit not given beside the values; conditions: for Protease Activity: pH 6.5, 0% control 27,300; for Protease % loss: pH 6.5, 75 min
Method: as §1, §2

[5] = tested on: amylase; assay: Amylase inactivation in dry enzyme mixture from Bacillus subtilis culture filtrate, spray dried product; conditions: 0.35% NaOCl based on weight of dry mixture, pH 6.2-6.6
Method: (§3) Twenty five pounds of an unstandarized, dry enzyme mixture, obtained by drying the clarified culture filtrate from the aerobic fermentation of Bacillus subtilis in an aqueous nutrient culture medium containing assimilable C, N and mineral salts, and which was determined to contain neutral protease, alkaline protease and amylase, is admixed with one hundred pounds of water at 70°-85° F. and agitated to facilitate solution. The solution is adjusted to pH 6.2-6.6 by slow addition of 20% aqueous NaOH solution. Then, 1.67 pounds of Clorox® (containing 5.25% NaOCl) is slowly admixed with the foregoing enzyme solution to thereby result in the addition of 0.0877 pounds or 0.35% NaOCl based on the weight of the dry mixture.

[6] = tested on: protease (both neutral and alkaline); assay: Protease retention in dry enzyme mixture from Bacillus subtilis culture filtrate, spray dried product; conditions: 0.35% NaOCl based on weight of dry mixture; pH 6.2-6.6; final spray dried material vs starting material
Method: as §3

[7] = Table II, treated solution, 0.3% based on weight of enzyme composition, final pH 6.5
[8] = Table III, spray-dried product, 0.3% based on weight of enzyme composition

Sequence of protease (Bacillus subtilis, UniProt P04189) (P04189 107-381): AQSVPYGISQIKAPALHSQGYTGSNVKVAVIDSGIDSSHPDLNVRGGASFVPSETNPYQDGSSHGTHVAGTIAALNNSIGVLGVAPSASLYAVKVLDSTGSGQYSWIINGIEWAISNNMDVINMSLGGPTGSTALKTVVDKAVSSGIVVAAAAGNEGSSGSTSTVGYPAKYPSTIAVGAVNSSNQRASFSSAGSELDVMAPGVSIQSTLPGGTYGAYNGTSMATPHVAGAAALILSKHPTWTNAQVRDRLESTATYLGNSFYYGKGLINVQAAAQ

For OO [hydrogen peroxide, reference compound], the “Amylase Activity” value [1] was 1250, the “selective inactivation of amylase compared with hypochlorite (in words)” value [1] was “substantially less effective in selectively inactivating amylase” and the “Amylase Activity” value ([1]; pH 6.4) was 236. The “Protease Activity” value [2] was 157,512 and the “Protease Activity” value ([2]; pH 6.4) was 29,579.

[Na+].[O-][Cl+2]([O-])[O-] [sodium chlorate, reference compound] was tested, and the “effect on amylase activity” value [1] was “Neither of these salts had any effect” and the “effect on protease activity” value [2] was “Neither of these salts had any effect”.

In the case of OCl [sodium hypochlorite], the Amylase Activity ([1]; 0.125% ion salt, pH 6.3, 0% control 583) is reported as 242, the Amylase % loss ([1]; 0.125% ion salt, pH 6.3) is reported as 55% and the Amylase Activity ([1]; 0.25% ion salt, pH 6.3, 0% control 583) is reported as 16. It also gave an Amylase % loss ([1]; 0.25% ion salt, pH 6.3) of 97%, an Amylase Activity ([1]; 0.40% ion salt, pH 6.3, 0% control 583) of 11 and an Amylase % loss ([1]; 0.40% ion salt, pH 6.3) of 98%. The “Amylase Activity” value [1, 7] was 3, the “Amylase Activity” value [1, 8] was 15 and the Protease Activity ([2]; 0.125% ion salt, pH 6.3, 0% control 25,900) was 25,100. For the same compound, the Protease Activity ([2]; 0.25% ion salt, pH 6.3, 0% control 25,900) was 25,900, the Protease Activity ([2]; 0.40% ion salt, pH 6.3, 0% control 25,900) was 24,600 and the inhibition at 0.125 % ([2]; 1.25 h, 0.125% ion salt, pH 6.3, read-out: Protease % loss) was 3%. The inhibition at 0.25 % ([2]; 1.25 h, 0.25% ion salt, pH 6.3, read-out: Protease % loss) was 0%, the inhibition at 0.4 % ([2]; 1.25 h, 0.40% ion salt, pH 6.3, read-out: Protease % loss) was 5% and the “Protease Activity” value [2, 7] was 27,365. The “Protease Activity” value [2, 8] was 147,650, the “Amylase Activity” value ([3]; 1.8% on solids content, pH 6.5, room temperature, 0% control 1075) was 467 and the “Amylase Activity” value ([3]; 3.6% on solids content, pH 6.5, 0% control 1075) was 31. The “Amylase Activity” value ([3]; 7.2% on solids content, pH 6.5, 0% control 1075) was 3, the “Amylase Activity” value ([3]; 10.8% on solids content, pH 6.5, 0% control 1075) was 0 and the inhibition at 1.8 % ([3]; 1.25 h, 1.8% on solids content, pH 6.5, read-out: Amylase % loss) was 57%. It also gave an inhibition at 3.6 % ([3]; 1.25 h, 3.6% on solids content, pH 6.5, read-out: Amylase % loss) of 97%, an inhibition at 7.2 % ([3]; 1.25 h, 7.2% on solids content, pH 6.5, read-out: Amylase % loss) of 100% and an inhibition at 10.8 % ([3]; 1.25 h, 10.8% on solids content, pH 6.5, read-out: Amylase % loss) of 100%. The “Protease Activity” value ([4]; 1.8% on solids content) was 28,400, the Protease % loss ([4]; 1.8% on solids content) was 0% and the “Protease Activity” value ([4]; 3.6% on solids content) was 24,800. For the same compound, the Protease % loss ([4]; 3.6% on solids content) was 9%, the “Protease Activity” value ([4]; 7.2% on solids content) was 19,100 and the Protease % loss ([4]; 7.2% on solids content) was 30%. The “Protease Activity” value ([4]; 10.8% on solids content) was 11,200, the Protease % loss ([4]; 10.8% on solids content) was 59% and the “amylase destruction (in words)” value [5] was “immediately destroys the amylase”. For the same compound, the amylase inactivated ([5]; final spray dried material vs starting material) was “about 98%” and the “protease retained in the final product” value [6] was “greater than 90%”.

In the case of [O-][Cl+3]([O-])([O-])O [sodium perchlorate, reference compound], the “effect on amylase activity” value [1] is reported as “Neither of these salts had any effect” and the “effect on protease activity” value [2] is reported as “Neither of these salts had any effect”.

For sodium chlorite, the Amylase % loss ([1]; b. subtilis amylase, pH 6.3, 75 min) was 99%, the Protease % loss ([2]; b. subtilis alkaline protease, pH 6.3, 75 min, 75 min) was 0% and 1% and 8% and the Protease Activity ([2]; pH 6.3) was 40,800 and 39,900 and 37,200.
